From article PMC9315981, “N-Phenacyldibromobenzimidazoles—Synthesis Optimization and Evaluation of Their Cytotoxic Activity” (Molecules, 2022)
Where two headings read alike, the source gives them in different places.

What was measured:
[1] = system: MCF-7 (breast adenocarcinoma); assay: MTT-based viability assay, MCF-7; assay type: cell-based, human; settings: for EC50: Homo sapiens, MCF7, MTT, 48 h of treatment, read-out: EC50 ± SD, MCF-7; for SI (selectivity index), MCF-7: SI = EC50 for normal MRC-5 line/EC50 for MCF-7
Description: (§1) To evaluate the cytotoxic activity of compounds 4a–j and 5a–5j, we performed an MTT test for three tumor cell lines, i.e.,: MCF-7 (breast adenocarcinoma), A-549 (lung adenocarcinoma), CCRF-CEM (acute lymphoblastic leukemia), and one normal cell line, MRC-5 (normal lung fibroblasts). The EC50 values, describing the half maximal effective concentration of each tested compound, were calculated and are summarized in Table 4. The representative sigmoidal dose–response curves are shown in Figure S2 (see Supporting Information S2).
(§2) CCRF-CEM (ECACC 85112105) human acute lymphoblastic leukaemia and MRC-5 pd30 Human fetal lung fibroblasts (ECACC 05090501) were purchased from European Collection of Authenticated Cell Cultures, whereas A-549 (ATCC CCL 185) human lung carcinoma and MCF-7 (ATCC HTB-22) human breast adenocarcinoma cell line were purchased from American Type Culture Collection. A-549 and MCF-7 cell lines were cultured in high glucose DMEM (Biowest) supplemented with 10% fetal bovine serum (Biowest), 2 mM L-glutamine and antibiotics (100 U/mL penicillin, 100 µg/mL streptomycin). CCRF-CEM were cultured in RPMI 1640 supplemented with 10% fetal bovine serum (EuroClone), 2 mM L-glutamine and antibiotics (100 U/mL penicillin, 100 µg/mL streptomycin). MRC-5 pd30 human fibroblasts (ECACC) were cultured in MEME, Minimum Essential Medium Eagle (Merck) supplemented with 10% fetal bovine serum (Merck), 2 mM l-glutamine, antibiotics (100 U mL^−1 penicillin, 100 μg mL^−1 streptomycin, Merck) and 1% non-essential amino-acids (Merck). Cells were grown in 75 cm^2 cell culture flasks (Sarstedt, Nümbrecht, Germany), in a humidified atmosphere of CO2/air (5/95%) at 37 °C. All the experiments were performed in exponentially growing cultures. Stock solution of tested compounds were prepared in DMSO and stored in −20 °C for maximum one month. For the cytotoxicity studies, stock solutions were diluted 200-fold with the proper culture medium to obtain the final concentrations. For cytotoxicity studies 2-fold serial dilutions of the tested compounds were prepared in the proper medium in the range from 3.125 µM to 200 µM.
(§3) After incubation with the test compounds, MTT test was performed as described previously. Optical densities were measured at 570 nm using BioTek microplate reader. All measurements were carried out in a minimum of three replicates.

[2] = system: CCRF-CEM (acute lymphoblastic leukemia); assay: MTT-based viability assay, CCRF-CEM; assay type: cell-based, human; settings: for EC50: Homo sapiens, CCRF-CEM, MTT, 48 h of treatment, read-out: EC50 ± SD, CCRF-CEM; for SI (selectivity index), CCRF-CEM: SI = EC50 for normal MRC-5 line/EC50 for CCRF-CEM
Description: as §1, §2, §3

[3] = system: A-549 (lung adenocarcinoma); assay: MTT-based viability assay, A-549; assay type: cell-based; settings: Homo sapiens, A549, 48 h of treatment, read-out: EC50 ± SD, A-549
Description: as §1, §2, §3

[4] = system: MRC-5 (normal lung fibroblasts); assay: MTT-based viability assay, MRC-5; assay type: cell-based; settings: Homo sapiens, MRC5, 48 h of treatment, read-out: EC50 ± SD, MRC-5
Description: as §1, §2, §3

CCRF-CEM cells = assay: Detection of apoptosis by flow cytometry (annexin V-FITC/PI); assay type: cell-based, human; settings: 48 h; for induction of apoptosis: annexin V binding
Description: CCRF-CEM cells were seeded in 24-well plates at 2 × 10^5 cells/well and treated with the tested compounds used in 15 µM, 30 µM, and 45 µM concentrations. After exposure to the examined compounds, the cells were collected, centrifugated at 200× g at 4 °C for 5 min, washed twice with cold phosphate–buffered saline (PBS), and subsequently suspended in binding buffer. Subsequently, 100-μL aliquots of the cell suspension were labelled according to the kit manufacturer’s instructions. Briefly, annexin V-fluorescein isothiocyanate, and propidium iodide (BD Biosciences, Pharmingen, San Diego, CA, USA) were added to the cell suspension, and the mixture was vortexed and then incubated for 15 min at RT in the dark. A cold binding buffer (400 μL) was then added and the cells were vortexed again and kept on ice. Flow cytometric measurements were performed within 1 h after labeling. Viable, necrotic, early, and late apoptotic cells were detected by FACSCanto II flow cytometer (BD Biosciences, San Diego, CA, USA) and analysed using BD FACSDiva software.
Figure 2 Effect of compounds 4f, 5g, and 5j on the progression of apoptosis/necrosis in CCRF-CEM. Percentage of viable, early, and late apoptotic, and necrotic cells after 48 h of treatment with the tested compounds (A). Percentage of CCRF-CEM cells in late apoptosis (B). Cells were stained with annexin V-FITC and PI (propidium iodide). Flow cytometry analyses were run on FACSCanto II flow cytometer (BD Biosciences, San Diego, CA, USA) and analysed using BD FACSDiva software. Graphs represent mean values ± s.e.m. *** p < 0.001 relative to control; ns—not significant. Statistical analysis for three to six independent replicates was performed using a one-way ANOVA analysis (GraphPad Software Inc., San Diego, CA, USA).

[5] = Solubility in DMSO (stock preparation); assay type: physicochemical
Text: However, among the tested compounds, the highest selectivity index was obtained for 5a (2.04) for MCF-7, respectively.

[6] = system: MCF-7 (breast adenocarcinoma); design: method as in PMID 28340404; settings: determined previously; read-out: EC50 ± SD, MCF-7; cited from earlier work
[7] = system: CCRF-CEM (acute lymphoblastic leukemia); design: method as in PMID 28340404; settings: determined previously; read-out: EC50 ± SD, CCRF-CEM; cited from earlier work

Row | Structure (SMILES) | EC50 [1] [µM] | SI (selectivity index), MCF-7 [1] | EC50 [2] [µM] | SI (selectivity index), CCRF-CEM [2] | EC50 [3] [µM] | EC50 [4] [µM] | cells in late apoptosis (CCRF-CEM cells; 30 µM, annexin V-FITC/PI) [%] | induction of apoptosis (CCRF-CEM cells; 45 µM) | percent of apoptotic cells (CCRF-CEM cells; 45 µM, annexin V-FITC/PI) [%] | solubility in DMSO [5] | EC50 [6] [µM] | EC50 [7] [µM]
1 | O=C(Cn1cnc2cc(Br)c(Br)cc21)c1ccc(Cl)cc1Cl [Compound 4e] | 60.3 ± 6.2 | 0.95 | 61.1 ± 2.76 | 0.94 | 67.98 ± 0.41 | – | – | – | – | – | – | –
2 | O=C(Cn1cnc2cc(Br)c(Br)cc21)c1c(Cl)cc(Cl)cc1Cl [Compound 4g] | 36.1 ± 1.47 | 0.38 | – | – | > 200 | 13.7 ± 0.63 | – | – | – | – | – | –
3 | O=C(Cn1cnc2c(Br)cc(Br)cc21)c1c(Cl)cc(Cl)cc1Cl [Compound 5g, 2-(4,6-dibromo-1H-benzimidazol-1-yl)-1-(2,4,6-trichlorophenyl)ethanone] | 24 ± 2.33 | 1.12 | 26.6 ± 0.31 | 1.01 | 41.3 ± 3.2 | 26.9 ± 1.62 | 32 | induced apoptosis effectively | 75.6 | – | – | –
4 | O=C(Cn1cnc2cc(Br)c(Br)cc21)c1ccc(Br)cc1 [Compound 4d] | – | – | – | – | – | – | – | – | – | sparingly soluble in DMSO | – | –
5 | O=C(Cn1cnc2c(Br)cc(Br)cc21)c1ccc(F)cc1F [Compound 5h] | 37 ± 2.15 | 1.23 | 51.2 ± 1.06 | 0.89 | 61.26 ± 0.45 | – | – | – | – | – | – | –
6 | O=C(Cn1cnc2c(Br)cc(Br)cc21)c1ccccc1 [Compound 5a] | 28.4 ± 1.11 | 2.04 | 183 ± 7.84 | 0.32 | 81.2 ± 6.68 | 57.9 ± 0.88 | – | – | – | – | – | –
7 | O=C(Cn1cnc2c(Br)cc(Br)cc21)c1ccc(F)cc1 [Compound 5b] | 45.93 ± 0.36 | 1.07 | – | – | 84.5 ± 3.09 | 49.2 ± 10.6 | – | – | – | – | – | –
8 | O=C(Cn1cnc2cc(Br)c(Br)cc21)c1ccccc1 [Compound 4a] | 37.6 ± 3.4 | 1.37 | 78.1 ± 5.58 | 0.66 | 111 ± 11.7 | 51.4 ± 1.62 | – | – | – | – | – | –
9 | O=C(Cn1cnc2cc(Br)c(Br)cc21)c1ccc(Cl)c(Cl)c1 [Compound 4f, 2-(5,6-dibromo-1H-benzimidazol-1-yl)-1-(3,4-dichlorophenyl)ethanone] | 26.4 ± 0.8 | 1.84 | 27.5 ± 2.46 | 1.76 | 51.1 ± 2.78 | 48.5 ± 4.5 | – | induced apoptosis effectively | – | – | – | –
10 | O=C(Cn1cnc2c(Br)cc(Br)cc21)c1ccc(Cl)cc1 [Compound 5c] | 30.4 ± 2.31 | 1.29 | 42.5 ± 8.36 | 0.92 | 46.7 ± 1.2 | 39.1 ± 8.41 | – | – | – | – | – | –
11 | O=C(Cn1cnc2cc(Br)c(Br)cc21)c1c(F)cc(F)cc1F [Compound 4j] | 37.6 ± 3.58 | 1.30 | 40.7 ± 1.03 | 1.20 | 94.3 ± 6.47 | 48.8 ± 9.07 | – | – | – | – | – | –
12 | O=C(Cn1cnc2cc(Br)c(Br)cc21)c1ccc(F)cc1F [Compound 4h] | 41.2 ± 3.85 | 1.40 | 59.9 ± 4.4 | 0.96 | 54.1 ± 4.05 | 57.6 ± 0.71 | – | – | – | – | – | –
13 | O=C(Cn1cnc2c(Br)cc(Br)cc21)c1ccc(Cl)cc1Cl [Compound 5e] | 27.4 ± 1.57 | 1.25 | 38.4 ± 1.39 | 0.89 | 46 ± 3.42 | 34.4 ± 7.83 | – | – | – | – | – | –
14 | O=C(Cn1cnc2c(Br)cc(Br)cc21)c1c(F)cc(F)cc1F [Compound 5j, 2-(4,6-dibromo-1H-benzimidazol-1-yl)-1-(2,4,6-trifluorophenyl)ethanone] | 42.2 ± 3.95 | 1.45 | 34.4 ± 2.3 | 1.77 | 85.4 ± 3.16 | 61 ± 5.64 | – | induced apoptosis effectively | – | – | – | –
15 | O=C(Cn1cnc2c(Br)cc(Br)cc21)c1ccc(Br)cc1 [Compound 5d, 1-(4-bromophenyl)-2-(4,6-dibromo-1H-benzimidazol-1-yl)ethanone] | 27.8 ± 2.61 | 1.62 | 50.5 ± 1.52 | 0.89 | 50.9 ± 2.84 | 45.1 ± 5.73 | – | – | – | – | – | –
16 | O=C(Cn1cnc2cc(Br)c(Br)cc21)c1ccc(Cl)cc1 [Compound 4c] | 49.1 ± 5.58 | 1.10 | 56.6 ± 4.48 | 0.96 | 76.6 ± 3.08 | 54.24 ± 0.52 | – | – | – | – | – | –
17 | O=C(Cn1cnc2cc(Br)c(Br)cc21)c1ccc(F)cc1 [Compound 4b] | 33 ± 2.63 | 1.70 | 44.1 ± 3.04 | 1.27 | 54.5 ± 1.58 | 56.1 ± 4.33 | – | – | – | – | – | –
18 | Brc1c(Br)c(Br)c2[nH]cnc2c1Br [4,5,6,7-tetrabromo-1H-benzimidazole] | – | – | – | – | 36.4 ± 0.7 | – | – | – | – | – | 23.6 ± 0.1 | 18.1 ± 0.6
19 | O=C(Cn1cnc2cc(Br)c(Br)cc21)c1cc(F)ccc1F [Compound 4i] | 29.6 ± 2.24 | 1.61 | 102 ± 8.62 | 0.47 | 37.9 ± 1.72 | 47.8 ± 12 | – | – | – | – | – | –
20 | O=C(Cn1cnc2c(Br)cc(Br)cc21)c1cc(F)ccc1F [Compound 5i] | 44.8 ± 6.33 | 1.07 | 46.2 ± 3.24 | 1.04 | 82.7 ± 10.6 | 48.07 ± 0.04 | – | – | – | – | – | –
21 | O=C(Cn1cnc2c(Br)cc(Br)cc21)c1ccc(Cl)c(Cl)c1 [Compound 5f] | 32.8 ± 1.88 | 1.32 | 40.6 ± 2.39 | 1.06 | 40 ± 5.78 | 43.2 ± 12.1 | – | – | – | – | – | –
